# Reference: patent US5728736A, “Reduction of hair growth” (priority 1995, dated 1998)
# Experiments:
# [1] = system: hair growth of hamster flank organs; test: Golden Syrian hamster assay (flank organ hair mass after topical application); assay type: in vivo; conditions: for Treated (mg) hair mass: treated flank organ, mean ± SEM; for Percent Inhibition (mean ± SEM) of hair growth: vs vehicle treated side
# Description: Male intact Golden Syrian hamsters are considered acceptable models for human beard hair growth in that they display oval shaped flank organs, one of each side, each about 8 mm. in major diameter, which growth thick black and coarse hair similar to human beard hair. These organs produce hair in response to androgens in the hamster. To evaluate the effectiveness of a particular arginase inhibitor the flank organs of each of a group of hamsters are depilated by applying a thioglycolate based chemical depilatory (Surgex). To one organ of each animal 10 μl of vehicle alone once a day is applied, while to the other organ of each animal an equal amount of vehicle containing an arginase inhibitor is applied. After thirteen applications (one application per day for five days a week), the flank organs are shaved and the amount of recovered hair (hair mass) from each is weighed. Percent-reduction of hair growth is calculated by subtracting the hair mass (mg) value of the test compound treated side from the hair mass value of the vehicle treated side; the delta value obtained is then divided by the hair mass value of the vehicle treated side, and the resultant number is multiplied by 100.
# The above-described assay will be referred to herein as the "Golden Syrian hamster" assay.
# hair follicle arginase = test: In vitro assay for inhibitors of hair follicle arginase; assay type: biochemical; conditions: compound 10 μM, hamster flank organ hair follicle extract, 5 minutes at 37° C., ornithine formation by HPLC
# Description: Extracts of hair follicles were obtained by excising and sonicating hair follicles obtained from hamster flank organs. The hair follicles from the hamster flank organ were excised and sonicated in a 0.01M Tris-buffered solution, pH 7.5. The sonicated extracts were centrifuged at 12,000×g, and the supernatant was used to measure arginase activity. Final reaction volumes were achieved by using 90 μl of the follicle supernatant, which was mixed with 100 μl of the Tris buffer (with or without the inhibitor), and 10 μl of 20 mM arginine incubated for 5 minutes at 37° C. The enzyme reaction was stopped by separating the enzyme from the substrate with a 10,000 molecular weight cut off filter. The product formed, ornithine, was separated from the substrate arginine using reverse phase HPLC methodology. An aliquot of the reaction was used to generate 20 μl of the filtrate which was reacted with 20 μl of O-pthalaldehyde (OPA) reagent. This reagent rapidly reacts with all primary amino acids to form fluorescent adducts that are separated on a C18 column (15 cm×3.9 mm). The 40 μl of derivatized sample is injected into the HPLC column and eluted with a stepwise gradient starting at 100% Buffer A (0.024M sodium acetate, 0.024M sodium phosphate, pH 4.0/methanol/tetrahydrofuran in a ratio of 81:15:4) and ending in a 50/50 mixture of Buffer A and Buffer B (methanol/water/tetrahydrofuran in a ratio of 75:15:10). A fluorescent detector was used to monitor the amino acid peaks as they eluted off the column.
# [2] = dose 10%, vehicle B, pH 7.0, 13 applications
# [3] = dose 10%, vehicle A, pH 6.5, 13 applications
# [4] = dose 10%, vehicle A, pH not given, 13 applications
# [5] = dose 7.5%, vehicle A, pH 3.5, 13 applications
# [6] = dose 10%, vehicle H2O, 13 applications
structure (smiles),measurement,setting,value
CC(NC(CCCNC(=N)N)C(=O)O)C(=O)O (stereo not drawn) [Octopine],Treated (mg) hair mass,[1]; [2],0.45 ± .07 mg
same,Percent Inhibition (mean ± SEM) of hair growth,[1]; [2],68 ± 6
same,% Inhibition of hair follicle arginase,hair follicle arginase,50%
CCN=C=NCCCN(C)C [1-Ethyl-3-(3-dimethylaminopropyl)-carbodiimide],Treated (mg) hair mass,[1]; [3],0.9 ± 0.9 mg
same,Percent Inhibition (mean ± SEM) of hair growth,[1]; [3],57 ± 5
same,% Inhibition of hair follicle arginase,hair follicle arginase,64%
N=C(NO)NCCC[C@H](N)C(=O)O [N^-G -Hydroxy-L-arginine],Treated (mg) hair mass,[1]; [4],0.97 ± .19 mg
same,Percent Inhibition (mean ± SEM) of hair growth,[1]; [4],66 ± 6
same,% Inhibition of hair follicle arginase,hair follicle arginase,98%
Cc1ccc(S(=O)(=O)N[C@@H](CCCNC(=N)N)C(=O)O)cc1 [N-Tosyl-L-arginine],Treated (mg) hair mass,[1]; [5],0.83 ± .13 mg
same,Percent Inhibition (mean ± SEM) of hair growth,[1]; [5],42 ± 13
same,% Inhibition of hair follicle arginase,hair follicle arginase,64%
CC(C)(N)C(=O)O [α-Aminoisobutyric acid],Treated (mg) hair mass,[1]; [6],1.96 ± 2.1 mg
same,Percent Inhibition (mean ± SEM) of hair growth,[1]; [6],34 ± 9
same,% Inhibition of hair follicle arginase,hair follicle arginase,27%
